The subject of one assay is H9/HTLV-IIIB. The assay can be described thus: Inhibition of syncytia formation in HIV-infected C8166 cells (antiviral screen adapted from plaque assay of Harada et al.). The class given is cell-based. As to conditions: Human immunodeficiency virus 1, IIIB, 72 h. From the text: Typical of such procedures are those described by S. Harada and N. Yamamoto, Jpn. J. Cancer Res. (Gann), 76, 432 (1985), and S. Harada et al., Science, 229, 563 (1985). An assay based on the latter procedures is described in the examples hereinafter.
The following protocol, used for screening antiviral effects of the compounds of formula 1 , is adapted from a plaque assay utilizing HTLV-I transformed cells which was developed by Harada et al., supra. HTLV-I transformed cells are used in these assays because of the rapidity with which HIV will replicate in these cells. • 1. The test compound is dissolved in dimethylsulfoxide to a concentration of 5 mg/mL. The resultant solution can be stored at 4° until used. • 2. The resultant solution is diluted in RPMI 1640 (Gibco Laboratories, St. Lawrence, MA, USA) to four times (4x) the final concentration which is to be tested. Once diluted in RPMI 1640, the solution is used in the cell culture assay within 4 h. • 3. The 4x solution (50µL) is added to triplicate wells of a 96 well flat bottomed microtiter plate. […] Infectious titer of virus stocks are as previously determined by end point dilution on C8166 cells. […] Plates are then removed and centers of syncytia are counted in each well by low power phase contrast light microscopy. […] Percent inhibition of syncytia formation is calculated by the formula: [formula]

The target in the next assay is T1, HIV protease (Human immunodeficiency virus type 1 group M subtype B, UniProt P04585).
T1 construct: HIV protease was expressed in E. coli [construct pBRT1 prt⁺; made in house; host or cells: E. coli
The assay can be described thus: Recombinant HIV Protease HPLC Assay. The format is biochemical. The source says:
The procedure is based on the capacity of the test compound to inhibit enzymatic cleavage by HIV protease of a decapeptide (the substrate) having an amino acid sequence which includes a known HIV protease cleavage site of a HIV polyprotein; see H.G. Krausslich et al., Proc. Natl. Acad. Sci. USA, 86, 807 (1989). Details of this assay together with the results obtained for exemplified compounds of formula 1 are described in the examples hereinafter.
Recombinant HIV Protease HPLC Assay:
HIV protease was expressed in E. coli [construct pBRT1 prt⁺, see W.G. Farmerie et al., Science, 236, 305 (1987)], according to the following protocol: Unless stated otherwise, all solutions are aqueous solutions.
E. coli cells containing the pBRT1 prt⁺ plasmid were used to inoculate a seed culture media composed of Luria-Bertani Broth containing 100µg/mL of ampicillin. Flasks were incubated at 37° under agitation for 17 h. Production flasks containing sterile M9 broth, supplemented with 100µg/ml of ampicillin, were inoculated at a level of 1% (v/v) using the seed culture described above. Total volume in each production flask was 500 mL in a 2 L Erlenmeyer flask. Flasks were incubated at 37° under agitation until a cell concentration corresponding to an optical density (λ = […]) of 0.6 was reached (no dilution). This time span was routinely 3-4 h. Flasks were then supplemented with 5mM isopropylthiogalactoside (IPTG, Research Organics, Cleveland, Ohio, USA) and incubation was continued until the cell concentration reached an optical density of 0.2 at 16-fold dilution. Flasks were then supplemented with 1mM phenylmethylsulfonyl fluoride (PMSF) and rapidly chilled to 4°. The bacterial cells were recovered by centrifugation at 4°. The wet pellet was stored at -70°.
All steps below were performed at 4° unless otherwise indicated. Thawed cells were mixed with buffer A [50 mM tris(hydroxymethyl)[…] HCl(Tris-HCl, pH 7.4); 0.6 mM ethylenediaminetetraacetic acid (EDTA); 0.375 M NaCl, 0.2% Nonidet P-40 ® (BDH Chemicals Ltd., Poole, UK); 1mM PMSF], at a ratio of one part cells to nine parts buffer A. Diatomaceous earth (Celite 545 ® , John Manville, Lompoc, CA, USA) was added at a ratio of two parts to one part of wet cell weight. The resulting slurry was homogenized at high speed (ca. 20,000 rpm) on a Waring ® industrial blender for 8 x 15 sec. pulses. Cell debris/Celite ® was collected by centrifugation and the resulting pellet was extracted with 4.5 parts of buffer A to one part wet solids using the homogenization procedure described above. Supernatants from both homogenization steps were combined and soluble protein was precipitated by the addition of solid (NH₄)₂SO₄ to yield a final concentration of 75% saturation. This mixture was agitated for 60 min and the precipitate was recovered by centrifugation. The resulting pellet was suspended in buffer B [50mM Tris-HCl, pH 8; 30 mM NaCl; 1 mM DL-dithiothreitol(DTT); 1 mM EDTA; 1 mM PMSF; 10% glycerol], and dialyzed for 18h against the same buffer.
An aliquot of the dialyzed extract containing 150 mg of the protein was loaded onto a Sephadex A25 ® anion exchange column. (Pharmacia, Uppsala, Sweden) with bed dimensions of 70 cm length and 2.5 cm diameter. The sample was eluted isocratically with buffer B at a linear flow rate of 10 cm/h. Fractions containing HIV protease activity (see below for assay description) were combined, and soluble protein was precipitated by the addition of saturated aqueous (NH₄)₂SO₄ to yield a total (NH₄)₂SO₄ concentration of 85% saturation. Precipitated protein was removed by centrifugation and the resulting pellet was dissolved in buffer C [50 mM 2-(4-morpholino)ethanesulfonic acid (MES), pH 5.5; 150 mM NaCl; 1 mM DTT; 1 mM EDTA; 10% glycerol). This preparation was dialyzed for 18h against buffer C, and then frozen at -70°. All crude extracts were purified by chromatography in aliquots containing 150 mg of protein in the same manner as described above. […]

This passage reports inhibition and IC50 results from patent publication EP0443560A2, “HIV protease inhibitors” (priority 1990, dated 1991).

Where two headings read alike, the source gives them in different places.

As to `CC(C)(C)OC(=O)NC(CC1CCCCC1)C(O)CC(=O)NC(CCC(=O)O)C(=O)NCCCc1ccccc1` (stereo not drawn) [Example 4, Boc-ACHPA-Glu-NHCH₂CH₂CH₂Ph], in the assay on H9/HTLV-IIIB, the inhibition (usually the drop in the measured response relative to a control, in per cent) at 20 µg/mL amounted to 96%. For the same molecule, at HIV protease, the IC50 stood at 7 nM.

Turning to `CC(C)(C)OC(=O)NC(CNC(CC1CC1)C(=O)NC(CCC(=O)O)C(=O)NCCCc1ccccc1)Cc1ccccc1` (stereo not drawn) [Example 2, Boc-PheΨ[CH₂NH]Cpa-Glu-NHCH₂CH₂CH₂Ph], in the assay on H9/HTLV-IIIB, the inhibition at 20 µg/mL amounted to 54%. At HIV protease, the IC50 is 13 nM.

With `CC(C)(C)OC(=O)N[C@@H](CC1CCCCC1)[C@@H](O)CC(=O)N[C@@H](CCC(=O)O)C(=O)NCCCc1ccco1` [Boc-ACHPA-Glu-NHCH₂CH₂CH₂-(2-furyl)], the IC50 at HIV protease (recombinant HIV protease HPLC assay, values in parenthesis in text, read-out: IC₅₀) was 25 nM.

On to `CC(C)(C)OC(=O)N[C@@H](CC1CCCCC1)[C@@H](O)CC(=O)N[C@@H](CCC(=O)O)C(=O)NCCOc1ccccc1Cl` [Boc-ACHPA-Glu-NHCH₂CH₂O-(2Cl-Ph)], for which, at HIV protease (read-out: IC₅₀, recombinant HIV protease HPLC assay, values in parenthesis in text), the IC50 is 6.6 nM.
